Data as given in PubChem BioAssay AID1199 (EPA DSSTox, 2008).
Activity calls are given as the source filed them.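 Rule for the calls: active = a tumour-causing dose and a tumour site recorded for mice in at least one sex group; inconclusive = only government mouse studies exist and were judged inadequate; inactive = mouse studies exist but none gave tumours.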

Each compound was assayed on mouse carcinogenicity bioassay, TD50 from CPDB (assay: DSSTox (CPDBAS) Carcinogenic Potency Database Summary Mouse Bioassay Results). Details: not given.
Method in brief: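 Values are TD50 carcinogenic potencies from mouse chronic bioassays, taking the most positive result for each sex-species. Sources are published literature and NCI/NTP studies; target sites reflect author-reported positive findings.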

| SMILES | Potency |
| --- | --- |
| Nc1ccc(-c2ccc(N)cc2)cc1 | 0.108 mmol/kg/day |
| CC(C)(C)NC(=O)[C@H]1CC[C@H]2[C@@H]3CC[C@H]4NC(=O)C=C[C@]4(C)[C@H]3CC[C@]12C | 0.875 mmol/kg/day |
| Cc1cc(O)c(C)c2c1OC(C)(CCCC(C)CCCC(C)CCCC(C)C)CC2 (configuration not stated) | 8.66 mmol/kg/day |

Same assay, conditions: TD50_Mouse_Note: TD50_Mouse_mmol was not calculated for this mixture, but Activiity Score is assigned value of 50 to indicate active

| SMILES | outcome |
| --- | --- |
| Clc1cccc(-c2ccc(Cl)c(Cl)c2Cl)c1Cl | active; liver |

Same assay, conditions: TD50_Mouse_Note: TD50 is harmonic mean of more than one positive test; TargetSites_Mouse_Female: esophagus; liver; lung; nasal cavity; oral cavity; stomach

| SMILES | Potency |
| --- | --- |
| O=NN1CCCCCC1 | 0.00412 mmol/kg/day |

Same assay, conditions: TD50_Mouse_Note: TD50 is harmonic mean of more than one positive test; TargetSites_Mouse_Female: harderian gland; liver; thyroid gland

| SMILES | Potency |
| --- | --- |
| Nc1ccc(Oc2ccc(N)cc2)cc1 | 0.168 mmol/kg/day |

Same assay, conditions: TD50_Mouse_Note: TD50 is harmonic mean of more than one positive test; TargetSites_Mouse_Female: harderian gland; liver; vascular system

| SMILES | Potency |
| --- | --- |
| Nc1ccc(-c2ccc(N)cc2)cc1 | 0.0766 mmol/kg/day |

Same assay, conditions: TD50_Mouse_Note: TD50 is harmonic mean of more than one positive test; TargetSites_Mouse_Female: hematopoietic system; lung; myocardium; stomach

| SMILES | Potency |
| --- | --- |
| C[C@]12CC[C@@H]3c4ccc(OC(=O)Cc5ccc(N(CCCl)CCCl)cc5)cc4CC[C@H]3[C@@H]1CC[C@@H]2OC(=O)Cc1ccc(N(CCCl)CCCl)cc1 | 0.00184 mmol/kg/day |

Same assay, conditions: TD50_Mouse_Note: TD50 is harmonic mean of more than one positive test; TargetSites_Mouse_Female: liver

| SMILES | Potency |
| --- | --- |
| O=C(O)C(Cl)Cl | 0.923 mmol/kg/day |
| O=C(O)c1cc(N=Nc2ccc(S(=O)(=O)Nc3ccccn3)cc2)ccc1O | 3.14 mmol/kg/day |
| Cc1ccc(N)cc1 | 0.581 mmol/kg/day |
| CC(O)COC(C)(C)C (configuration not stated) | 14.1 mmol/kg/day |
| Clc1cc2c(c(Cl)c1Cl)Oc1c(cc(Cl)c(Cl)c1Cl)O2 | 3.66e-06 mmol/kg/day |

Same assay, conditions: TD50_Mouse_Note: TD50 is harmonic mean of more than one positive test; TargetSites_Mouse_Female: liver; lung; stomach

| SMILES | Potency |
| --- | --- |
| Cn1c(N)nc2c3cccnc3ccc21 | 0.0989 mmol/kg/day |

Same assay, conditions: TD50_Mouse_Note: TD50 is harmonic mean of more than one positive test; TargetSites_Mouse_Female: lung

| SMILES | Potency |
| --- | --- |
| O.O.O.O.O.O.O.O=S(=O)([O-])[O-].[Co+2] | 0.00269 mmol/kg/day |

Same assay, conditions: TD50_Mouse_Note: TD50 is harmonic mean of more than one positive test; TargetSites_Mouse_Female: lung; mammary gland; vascular system

| SMILES | Potency |
| --- | --- |
| C=C(Cl)Cl | 0.357 mmol/kg/day |

Same assay, conditions: TD50_Mouse_Note: TD50 is harmonic mean of more than one positive test; TargetSites_Mouse_Female: lung; vascular system

| SMILES | Potency |
| --- | --- |
| CN(C)N | 0.0659 mmol/kg/day |

Same assay, conditions: TD50_Mouse_Note: TD50 is harmonic mean of more than one positive test; TargetSites_Mouse_Female: peritoneal cavity

| SMILES | Potency |
| --- | --- |
| ClCOCCl | 0.00158 mmol/kg/day |

Same assay, conditions: TD50_Mouse_Note: TD50 is harmonic mean of more than one positive test; TargetSites_Mouse_Female: stomach

| SMILES | Potency |
| --- | --- |
| O=Cc1ccccc1 | 14 mmol/kg/day |

Same assay, conditions: TD50_Mouse_Note: TD50 is harmonic mean of more than one positive test; greater than ten-fold variation among TD50 values for positive res; TargetSites_Mouse_Female: liver

| SMILES | Potency |
| --- | --- |
| C1COCCO1 | 2.32 mmol/kg/day |

Same assay, conditions: TD50_Mouse_Note: TD50 is harmonic mean of more than one positive test; greater than ten-fold variation among TD50 values for positive res; TargetSites_Mouse_Female: urinary bladder

| SMILES | Potency |
| --- | --- |
| O=c1cc[nH]c(=O)[nH]1 | 24.5 mmol/kg/day |

Same assay, conditions: TD50_Mouse_Note: TD50 is harmonic mean of more than one positive test; harmonic mean of TD50 includes a value for upper 99% confidence li; TargetSites_Mouse_Female: liver

| SMILES | Potency |
| --- | --- |
| CCC1(c2ccccc2)C(=O)NC(=O)NC1=O | 0.0317 mmol/kg/day |

Same assay, conditions: TD50_Mouse_Note: TD50 value is overestimated as upper 99% confidence limit from study with 100% tumor incidence but no lifetable; harmoni

| SMILES | Potency |
| --- | --- |
| Cc1cccc(Nc2cc(Cl)nc(SCC(=O)O)n2)c1C | 0.0334 mmol/kg/day |

Same assay, conditions: TD50_Mouse_Note: no positive results

| SMILES | outcome |
| --- | --- |
| CC1=C[C@H]2O[C@@H]3[C@H](O)C[C@@](C)(C34CO4)[C@@]2(CO)[C@H](O)C1=O (some centres not stated) | inactive; no positive results |
| ClC(Cl)=C(Cl)c1c(Cl)c(Cl)c(Cl)c(Cl)c1Cl | inactive; no positive results |

Same assay, conditions: TD50_Mouse_Note: no positive results are statistically significant; TD50_Mouse_mmol was not calculated for this mixture, but Activiity Sc; TargetSites_Mouse_Female: pituitary gland

| SMILES | outcome |
| --- | --- |
| C#C[C@]1(OC(C)=O)CC[C@H]2[C@@H]3CCC4=CC(=O)CC[C@@H]4[C@H]3CC[C@@]21C | active |

Same assay, conditions: TD50_Mouse_Note: no positive results are statistically significant; TargetSites_Mouse_Female: no positive results

| SMILES | Potency |
| --- | --- |
| Cc1cccc(N)c1 | 10 mmol/kg/day |

Same assay, conditions: TD50_Mouse_Note: no positive results; TargetSites_Mouse_Female: no positive results

| SMILES | outcome |
| --- | --- |
| Cc1ccc2c(-c3cccc(O)c3)nc(=O)n(C(C)C)c2c1 | inactive; no positive results |
| CNC(=O)O/N=C/C(C)(C)SC | inactive; no positive results |
| [Cl-].[Cl-].[Hg+2] | inactive; no positive results |
| S=C(S)NCCNC(=S)S | inactive; no positive results |
| OB(O)O | inactive; no positive results |
| CN(C)C(=S)[S][Bi]([S]C(=S)N(C)C)[S]C(=S)N(C)C | inactive; no positive results |
| CCn1cc(C(=O)O)c(=O)c2cc3c(cc21)OCO3 | inactive; no positive results |
| FC(F)OC(F)(F)C(F)Cl (configuration not stated) | inactive; no positive results |
| COc1ccc(N)c(C)c1 | inactive; ntp bioassay inadequate |
| N[C@@H](Cc1c[nH]c2ccccc12)C(=O)O | inactive; no positive results |
| Cc1ccc2c(-c3ccccc3)nc(=O)n(C(C)C)c2c1 | inactive; no positive results |
| Cc1cccc(C)c1NC(=O)CN1CCCC1=O | inactive; no positive results |
| COc1ccc2nc(S(=O)Cc3ncc(C)c(OC)c3C)[nH]c2c1 (configuration not stated) | inactive; no positive results |
| C=CCOC(=O)c1ccccc1C(=O)OCC=C | inactive; no positive results |
| CC(N)Cc1ccccc1 (configuration not stated) | inactive; no positive results |
| O=C/C(Cl)=C(/Cl)C(=O)O | inactive; no positive results |
| O=S1(=O)OCCO1 | inactive |
| CC(C)OC(=O)Nc1cccc(Cl)c1 | inactive; no positive results |
| C/C=C/C(=O)Oc1c(C(C)CCCCCC)cc([N+](=O)[O-])cc1[N+](=O)[O-] (configuration not stated) | inactive; no positive results |
| CC(=O)[O][Hg][c]1ccccc1 | inactive; no positive results |
| C[C@]12C=CC(=O)C=C1CC[C@@H]1[C@@H]2C(=O)C[C@@]2(C)[C@H]1CC[C@]2(O)C(=O)CO | inactive; no positive results |
| CCn1cc(C(=O)O)c(=O)c2ccc(C)nc21 | inactive; no positive results |
| CCCCCCCCCc1ccc(OCCOCCO)cc1 | inactive |
| COc1cc(-c2ccc(N=C=O)c(OC)c2)ccc1N=C=O | inactive; no positive results |
| Oc1ccc(Cl)cc1Cl | inactive; no positive results |
| O=[N+]([O-])c1ccc(Cl)c([N+](=O)[O-])c1 | inactive; no positive results |

| SMILES | outcome |
| --- | --- |
| C[C@](N)(Cc1ccc(O)c(O)c1)C(=O)O | inactive; no positive results |
| CCN(CC)C(=S)S[Te](SC(=S)N(CC)CC)(SC(=S)N(CC)CC)SC(=S)N(CC)CC | inactive; no positive results |
| C[C@@H]1CCC[C@H](C)N1CCCC(O)(c1ccccc1)c1ccccn1 (some centres not stated) | inactive; no positive results |
| NS(=O)(=O)c1cc2c(cc1Cl)NCNS2(=O)=O | inactive; no positive results |
| O.O.O.O.O=C([O-])CC(O)(CC(=O)[O-])C(=O)[O-].[Fe+3] | inactive; no positive results |
| Clc1ccc2c(c1)Oc1ccc(Cl)cc1O2 | inactive; no positive results |
| CCNc1nc(Cl)nc(NC(C)C)n1 | inactive; no positive results |
| Cc1ccccc1OCC(O)CNCCn1cc(C)c(=O)[nH]c1=O (configuration not stated) | inactive; no positive results |
| COc1ccc([C@@H]2CC(=O)c3c(O)cc(O[C@@H]4O[C@H](CO[C@@H]5O[C@@H](C)[C@H](O)[C@@H](O)[C@H]5O)[C@@H](O)[C@H](O)[C@H]4O)cc3O2)cc1OC | inactive; no positive results |
| O=S(O)S(=O)(=O)O | inactive; no positive results |
| C/C=C/C=C/C(=O)O | inactive; no positive results |
| C=CC=O | inactive; no positive results |
| OC[C@H]1O[C@@H]2O[C@H]3[C@H](O)[C@@H](O)[C@@H](O[C@H]4[C@H](O)[C@@H](O)[C@@H](O[C@H]5[C@H](O)[C@@H](O)[C@@H](O[C@H]6[C@H](O)[C@@H](O)[C@@H](O[C@H]7[C@H](O)[C@@H](O)[C@@H](O[C@H]8[C@H](O)[C@@H](O)[C@@H](O[C@H]1[C@H](O)[C@H]2O)O[C@@H]8CO)O[C@@H]7CO)O[C@@H]6CO)O[C@@H]5CO)O[C@@H]4CO)O[C@@H]3CO | inactive; no positive results |
| CC1(C)[C@H](C(=O)O[C@H](C#N)c2cccc(Oc3ccccc3)c2)[C@@H]1C=C(Br)Br | inactive; no positive results |
| O=P(O)(O)O | inactive; no positive results |
| Oc1c(Cl)cc(Cl)cc1Sc1cc(Cl)cc(Cl)c1O | inactive; no positive results |
| C1N2CN3CN1CN(C2)C3 | inactive; no positive results |
| CC1CC(C)(C)CC(OOC(C)(C)C)(OOC(C)(C)C)C1 (configuration not stated) | inactive; no positive results |
| CC(=O)C1C(=O)C=C(C)OC1=O (configuration not stated) | inactive; no positive results |
| CN(C)CCOC(c1ccccc1)c1ccccc1 | inactive; no positive results |
| CC(/C=C/C=C(\C)C(=O)O[C@@H]1O[C@H](CO[C@@H]2O[C@H](CO)[C@@H](O)[C@H](O)[C@H]2O)[C@@H](O)[C@H](O)[C@H]1O)=C\C=C\C=C(C)\C=C\C=C(/C)C(=O)O[C@@H]1O[C@H](CO[C@@H]2O[C@H](CO)[C@@H](O)[C@H](O)[C@H]2O)[C@@H](O)[C@H](O)[C@H]1O | inactive; no positive results |
| CNC(=O)O/N=C(\SC)C(=O)N(C)C | inactive; no positive results |
| F | inactive; no positive results |
| CC(C)O | inactive; no positive results |
| CC(Cl)Cl | inactive; no positive results |

Same assay, conditions: TD50_Mouse_Note: only experiment is NCI/NTP bioassay inadequate; TargetSites_Mouse_Female: NTP bioassay inadequate

| SMILES | outcome |
| --- | --- |
| CC[C@H]1CN2CCc3cc(OC)c(OC)cc3[C@@H]2C[C@@H]1C[C@H]1NCCc2cc(OC)c(OC)cc21 | ntp bioassay inadequate |

Same assay, conditions: TD50_Mouse_Note: positive test results only by intraperitoneal or intravenous injection; TargetSites_Mouse_Female: hematopoietic system

| SMILES | Potency |
| --- | --- |
| O=P1(NCCCl)OCCCN1CCCl (configuration not stated) | 0.0194 mmol/kg/day |

Same assay, conditions: TargetSites_Mouse_Female: liver

| SMILES | Potency |
| --- | --- |
| Cc1cccc(Nc2cc(Cl)nc(SCC(=O)NCCO)n2)c1C | 0.122 mmol/kg/day |

Same assay, conditions: TargetSites_Mouse_Female: liver; ovary

| SMILES | Potency |
| --- | --- |
| O=[N+]([O-])c1ccc2c3c(cccc13)CC2 | 0.23 mmol/kg/day |

Same assay, conditions: TargetSites_Mouse_Female: lung; stomach; urinary bladder

| SMILES | Potency |
| --- | --- |
| Cl/C=C/CCl | 0.447 mmol/kg/day |

Same assay, conditions: TargetSites_Mouse_Female: no positive results

| SMILES | Potency |
| --- | --- |
| COc1ccc(OC)c(/C=C/c2ccc(N)cc2)c1 | 0.376 mmol/kg/day |
| Cl/C=C/CCl | 1.06 mmol/kg/day |
| Cc1ccc(NC(N)=O)cc1 | 1.37 mmol/kg/day |
| CC(COc1ccc(C(C)(C)C)cc1)OS(=O)OCCCl (configuration not stated) | 0.472 mmol/kg/day |
